Experimental data reported in ChEMBL document CHEMBL3124777, “Synthesis and biological evaluation of thiazoline derivatives as new antimicrobial and anticancer agents” (Eur J Med Chem, 2014).
Values after ≈ are worked out from the molar mass of the structure shown.

Tests used:
[1] = tested on: Pseudomonas aeruginosa; test: Antimicrobial activity against Pseudomonas aeruginosa […] after 18 to 24 hrs by microbroth dilution method; format: functional
[2] = tested on: Penicillium chrysogenum; test: Antimicrobial activity against Penicillium chrysogenum NRRL 1951 after 48 to 72 hrs by microbroth dilution method; format: functional
[3] = tested on: Fusarium culmorum; test: Antimicrobial activity against wild type Fusarium culmorum after 48 to 72 hrs by microbroth dilution method; format: functional
[4] = tested on: Listeria monocytogenes; test: Antimicrobial activity against Listeria monocytogenes ATCC 7644 after 18 to 24 hrs by microbroth dilution method; format: functional
[5] = tested on: Aspergillus ochraceus; test: Antimicrobial activity against Aspergillus ochraceus NRRL 3174 after 48 to 72 hrs by microbroth dilution method; format: functional
[6] = tested on: Staphylococcus aureus; test: Antimicrobial activity against Staphylococcus aureus NRRL B-767 after 18 to 24 hrs by microbroth dilution method; format: functional
[7] = tested on: Trichoderma harzianum; test: Antimicrobial activity against Trichoderma harzianum NRRL 20565 after 48 to 72 hrs by microbroth dilution method; format: functional
[8] = tested on: Micrococcus luteus; test: Antimicrobial activity against Micrococcus luteus NRLL B-4375 after 18 to 24 hrs by microbroth dilution method; format: functional
[9] = tested on: NIH3T3; test: Cytotoxicity against mouse NIH/3T3 cells after 24 hrs by MTT assay; format: cell-based; settings: NIH3T3, 24 h
[10] = tested on: Candida albicans; test: Antimicrobial activity against Candida albicans ATCC 22019 after 18 to 24 hrs by microbroth dilution method; format: functional
[11] = tested on: Fusarium solani; test: Antimicrobial activity against Fusarium solani NRRL 13414 after 48 to 72 hrs by microbroth dilution method; format: functional
[12] = tested on: Escherichia coli; test: Antimicrobial activity against Escherichia coli ATCC 25922 after 18 to 24 hrs by microbroth dilution method; format: functional
[13] = tested on: Bacillus subtilis; test: Antimicrobial activity against Bacillus subtilis NRS-744 after 18 to 24 hrs by microbroth dilution method; format: functional
[14] = tested on: Aspergillus parasiticus; test: Antimicrobial activity against Aspergillus parasiticus NRRL 465 after 48 to 72 hrs by microbroth dilution method; format: functional
[15] = tested on: Fusarium verticillioides; test: Antimicrobial activity against Fusarium moniliforme NRRL 1866 after 48 to 72 hrs by microbroth dilution method; format: functional

SMILES | MIC [1] [µg/mL] | MIC [2] [µg/mL] | MIC [3] [µg/mL] | MIC [4] [µg/mL] | MIC [5] [µg/mL] | MIC [6] [µg/mL] | MIC [7] [µg/mL] | MIC [8] [µg/mL] | MIC [10] [µg/mL] | MIC [11] [µg/mL] | MIC [12] [µg/mL] | MIC [13] [µg/mL] | MIC [14] [µg/mL] | MIC [15] [µg/mL] | IC50 [9] [µg/mL]
Cn1cnnc1SCC(=O)N/N=c1/scc(-c2ccc(Cl)cc2)n1-c1ccccc1 | 250 (≈ 547 µM) | 250 (≈ 547 µM) | 250 (≈ 547 µM) | 250 (≈ 547 µM) | 250 (≈ 547 µM) | 125 (≈ 274 µM) | 125 (≈ 274 µM) | 125 (≈ 274 µM) | 250 (≈ 547 µM) | 250 (≈ 547 µM) | 125 (≈ 274 µM) | 125 (≈ 274 µM) | 250 (≈ 547 µM) | 250 (≈ 547 µM) | 51.7 (≈ 113 µM)
Cn1nnnc1SCC(=O)N/N=c1/scc(-c2ccc(F)cc2)n1-c1ccccc1 | 250 (≈ 566 µM) | 250 (≈ 566 µM) | 250 (≈ 566 µM) | 250 (≈ 566 µM) | 250 (≈ 566 µM) | 250 (≈ 566 µM) | 250 (≈ 566 µM) | 250 (≈ 566 µM) | 250 (≈ 566 µM) | 250 (≈ 566 µM) | 125 (≈ 283 µM) | 250 (≈ 566 µM) | 250 (≈ 566 µM) | 250 (≈ 566 µM) | 113 (≈ 257 µM)
Cn1cnnc1SCC(=O)N/N=c1/scc(-c2ccc(Br)cc2)n1-c1ccccc1 | 250 (≈ 499 µM) | 250 (≈ 499 µM) | 250 (≈ 499 µM) | 250 (≈ 499 µM) | 250 (≈ 499 µM) | 250 (≈ 499 µM) | 125 (≈ 249 µM) | 250 (≈ 499 µM) | 250 (≈ 499 µM) | 250 (≈ 499 µM) | 250 (≈ 499 µM) | 250 (≈ 499 µM) | 250 (≈ 499 µM) | 250 (≈ 499 µM) | 58.3 (≈ 116 µM)
O=C(CSc1nnnn1-c1ccccc1)N/N=c1/scc(-c2ccc([N+](=O)[O-])cc2)n1-c1ccccc1 | 250 (≈ 471 µM) | 250 (≈ 471 µM) | 250 (≈ 471 µM) | 250 (≈ 471 µM) | 250 (≈ 471 µM) | 250 (≈ 471 µM) | 125 (≈ 236 µM) | 500 (≈ 942 µM) | 250 (≈ 471 µM) | 250 (≈ 471 µM) | 250 (≈ 471 µM) | 250 (≈ 471 µM) | 250 (≈ 471 µM) | 250 (≈ 471 µM) | 14.3 (≈ 27 µM)
O=C(CSc1ncccn1)N/N=c1/scc(-c2ccccc2)n1-c1ccccc1 | 250 (≈ 596 µM) | 250 (≈ 596 µM) | 250 (≈ 596 µM) | 250 (≈ 596 µM) | 250 (≈ 596 µM) | 250 (≈ 596 µM) | 250 (≈ 596 µM) | 250 (≈ 596 µM) | 250 (≈ 596 µM) | 250 (≈ 596 µM) | 250 (≈ 596 µM) | 500 (≈ 1190 µM) | 250 (≈ 596 µM) | 250 (≈ 596 µM) | 107 (≈ 254 µM)
Cn1cnnc1SCC(=O)N/N=c1/scc(-c2ccc(F)cc2)n1-c1ccccc1 | 125 (≈ 284 µM) | 250 (≈ 567 µM) | 250 (≈ 567 µM) | 125 (≈ 284 µM) | 250 (≈ 567 µM) | 125 (≈ 284 µM) | 250 (≈ 567 µM) | 250 (≈ 567 µM) | 250 (≈ 567 µM) | 250 (≈ 567 µM) | 125 (≈ 284 µM) | 250 (≈ 567 µM) | 250 (≈ 567 µM) | 250 (≈ 567 µM) | 65 (≈ 148 µM)

Continued by falling MIC [1], values first:

MIC [1] [µg/mL] | MIC [2] [µg/mL] | MIC [3] [µg/mL] | MIC [4] [µg/mL] | MIC [5] [µg/mL] | MIC [6] [µg/mL] | MIC [7] [µg/mL] | MIC [8] [µg/mL] | MIC [10] [µg/mL] | MIC [11] [µg/mL] | MIC [12] [µg/mL] | MIC [13] [µg/mL] | MIC [14] [µg/mL] | MIC [15] [µg/mL] | SMILES | IC50 [9] [µg/mL]
250 (≈ 485 µM) | 250 (≈ 485 µM) | 125 (≈ 242 µM) | 250 (≈ 485 µM) | 250 (≈ 485 µM) | 250 (≈ 485 µM) | 125 (≈ 242 µM) | 125 (≈ 242 µM) | 250 (≈ 485 µM) | 250 (≈ 485 µM) | 250 (≈ 485 µM) | 500 (≈ 970 µM) | 250 (≈ 485 µM) | 250 (≈ 485 µM) | COc1ccc(-c2cs/c(=N/NC(=O)CSc3nnnn3-c3ccccc3)n2-c2ccccc2)cc1 | 11.7 (≈ 22.7 µM)
250 (≈ 535 µM) | 250 (≈ 535 µM) | 250 (≈ 535 µM) | 250 (≈ 535 µM) | 250 (≈ 535 µM) | 250 (≈ 535 µM) | 250 (≈ 535 µM) | 125 (≈ 267 µM) | 250 (≈ 535 µM) | 250 (≈ 535 µM) | 250 (≈ 535 µM) | 125 (≈ 267 µM) | 250 (≈ 535 µM) | 250 (≈ 535 µM) | Cn1cnnc1SCC(=O)N/N=c1/scc(-c2ccc([N+](=O)[O-])cc2)n1-c1ccccc1 | 133 (≈ 285 µM)
250 (≈ 482 µM) | 250 (≈ 482 µM) | 250 (≈ 482 µM) | 250 (≈ 482 µM) | 250 (≈ 482 µM) | 500 (≈ 964 µM) | 125 (≈ 241 µM) | 250 (≈ 482 µM) | 250 (≈ 482 µM) | 250 (≈ 482 µM) | 250 (≈ 482 µM) | 500 (≈ 964 µM) | 250 (≈ 482 µM) | 250 (≈ 482 µM) | Cc1nnc(SCC(=O)N/N=c2/scc(-c3ccc(Br)cc3)n2-c2ccccc2)s1 | 55 (≈ 106 µM)
